Laboratory results reported in patent publication US20190161499A1, “PESTICIDALLY ACTIVE 1,2,4-TRIAZOLE DERIVATIVES” (SYNGENTA PARTICIPATIONS AG, priority 2015, published 2019).

How the values were obtained:
Type in all cases: in vivo
[1] = system: Plutella xylostella (Diamond Back Moth); assay: whole plant or invertebrate; details: 120 h, application rate 200 ppm, L2 larvae, 5 days after infestation, read-out: effect in at least one of the two categories (mortality or growth inhibition)
Procedure: Example B2: Plutella xylostella (Diamond Back Moth)
(§1) 24-well microtiter plates with artificial diet were treated with aqueous test solutions prepared from 10,000 ppm DMSO stock solutions by pipetting. After drying, the plates were infested with L2 larvae (10 to 15 per well). The samples were assessed for mortality and growth inhibition in comparison to untreated samples 5 days after infestation.

[2] = system: Spodoptera littoralis (Egyptian Cotton Leaf Worm); assay: Spodoptera littoralis cotton leaf disc spray test; details: foliar, 72 h, application rate 200 ppm, L1 larvae, 3 days after infestation, read-out: control (at least one of mortality, anti-feedant effect, growth inhibition)
Procedure: Spodoptera littoralis (Egyptian Cotton Leaf Worm)
Cotton leaf discs were placed on agar in 24-well microtiter plates and sprayed with aqueous test solutions prepared from 10,000 ppm DMSO stock solutions. After drying, the leaf discs were infested with five L1 larvae. The samples were assessed for mortality, anti-feedant effect, and growth inhibition in comparison to untreated samples 3 days after infestation. Control of Spodoptera littoralis by a test sample is when at least one of mortality, anti-feedant effect, and growth inhibition is higher than the untreated sample.

[3] = system: Diabrotica Balteata (Corn Root Worm); assay: whole plant or invertebrate; details: 96 h, application rate 200 ppm, L2 larvae, 4 days after infestation, read-out: effect in at least one of the two categories (mortality or growth inhibition)
Procedure: Example B3: Diabrotica Balteata (Corn Root Worm)
as §1, with “Maize sprouts, placed on an agar layer in 24-well” for “24-well”, “plates” for “plates with artificial diet”, “spraying.” for “pipetting.”, “(6” for “(10”, “10” for “15”, “4” for “5”

SMILES	percent effect (mortality or growth inhibition) at 200 ppm [1] [%]	percent control (mortality, anti-feedant effect or growth inhibition) at 200 ppm [2] [%]	percent effect (mortality or growth inhibition) at 200 ppm [3] [%]
Fc1ccccc1-n1nc(-c2ccc(Cl)cc2)nc1CN1CCC(c2ccon2)CC1 [Example 1.120]	≥ 80	≥ 80	≥ 80
CC1CCN(Cc2nc(-c3ccc(Cl)cc3)nn2-c2ccccc2F)CC1 [Example 1.46]	≥ 80	≥ 80	≥ 80
Fc1ccccc1-n1nc(-c2ccc(Cl)cc2)nc1CN1CCC(c2ncccn2)CC1 [Example 1.1, 2-[1-[[5-(4-chlorophenyl)-2-(2-fluorophenyl)-1,2,4-triazol-3-yl]methyl]-4-piperidyl]pyrimidine]	≥ 80	≥ 80	≥ 80
Cc1nccc(C2CCN(Cc3nc(-c4ccc(Cl)cc4)nn3-c3ccccc3F)CC2)n1 [Example 1.110]	≥ 80	≥ 80	≥ 80
Fc1ccccc1-n1nc(-c2ccc(Cl)c(Cl)c2)nc1CN1CCC(c2ncccn2)CC1 [Example 1.20]	≥ 80	≥ 80	≥ 80
Fc1ccccc1-n1nc(-c2ccc(Cl)cc2)nc1CN1CCC(c2ncccn2)C1 (stereo not drawn) [Example 5.7]	≥ 80		≥ 80
Fc1ccc(C2CCN(Cc3nc(-c4ccc(Cl)cc4)nn3-c3ccccc3F)CC2)nc1 [Example 1.122]	≥ 80	≥ 80	≥ 80
COC[C@@H]1CCCN1Cc1nc(-c2ccc(Cl)cc2)nn1-c1ccccc1F [Example 5.28]	≥ 80	≥ 80	≥ 80
Cc1ccccc1-n1nc(-c2ccc(Cl)cc2)nc1CN1CCC(c2ncccn2)CC1 [Example 1.62]	≥ 80	≥ 80	≥ 80
Fc1ccc(-n2nc(-c3ccc(Cl)cc3)nc2CN2CCC(c3ncccn3)CC2)c(F)c1 [Example 1.30]	≥ 80	≥ 80	≥ 80
Cc1cc(Cl)ccc1-n1nc(-c2ccc(Cl)cc2)nc1CN1CCC(c2ncccn2)CC1 [Example 1.85]	≥ 80	≥ 80	≥ 80
Clc1ccc(-c2nc(CN3CCC(c4ncccn4)CC3)n(-c3ccccc3)n2)cc1 [Example 1.61]	≥ 80	≥ 80	≥ 80
Fc1ccccc1-n1nc(-c2ccc(Cl)cc2)nc1CN1CCC(c2cc(Cl)cc(Cl)c2)(C(F)(F)F)C1 (stereo not drawn) [Example 5.2]	≥ 80		
Fc1ccccc1-n1nc(-c2ccc(Cl)cc2)nc1CN1CCC(c2ncccc2Cl)CC1 [Example 1.126]	≥ 80	≥ 80	≥ 80
Fc1ccccc1-n1nc(-c2ccc(Cl)cc2)nc1CN1CCC(c2ccccc2)CC1 [Example 1.43]	≥ 80	≥ 80	≥ 80
Clc1ccc(-c2nc(CN3CCC(c4ncccn4)CC3)n(Cc3ccccc3)n2)cc1 [Example 1.56]	≥ 80	≥ 80	≥ 80
COc1ccccc1-n1nc(-c2ccc(Cl)cc2)nc1CN1CCC(c2ncccn2)CC1 [Example 1.70]	≥ 80	≥ 80	≥ 80

SMILES	percent effect (mortality or growth inhibition) at 200 ppm [1] [%]	percent control (mortality, anti-feedant effect or growth inhibition) at 200 ppm [2] [%]	percent effect (mortality or growth inhibition) at 200 ppm [3] [%]
Clc1ccc(-c2nc(CN3CCC(c4ncccn4)CC3)n(-c3ccccn3)n2)cc1 [Example 1.78]	≥ 80	≥ 80	≥ 80
Clc1ccc(-c2nc(CN3CCC(c4ncccn4)CC3)n(-c3cccc(Cl)c3Cl)n2)cc1 [Example 1.55]	≥ 80	≥ 80	≥ 80
Clc1ccc(-c2nc(CN3CCC(c4ncccn4)CC3)n(-c3ccc(Br)cc3)n2)cc1 [Example 1.76]	≥ 80	≥ 80	≥ 80
Clc1ccc(-c2nc(CN3CCC(c4ncccn4)CC3)n(-c3ccccc3Cl)n2)cc1 [Example 1.83]	≥ 80	≥ 80	≥ 80
Fc1ccccc1-n1nc(-c2ccc(Cl)cn2)nc1CN1CCC(c2ncccn2)CC1 [Example 1.4]	≥ 80	≥ 80	≥ 80
Fc1ccc(-c2nc(CN3CCC(c4ncccn4)CC3)n(-c3ccc(F)cc3)n2)cc1 [Example 1.29]	≥ 80	≥ 80	≥ 80
Fc1cccc(-n2nc(-c3ccc(Cl)cc3)nc2CN2CCC(c3ncccn3)CC2)c1 [Example 1.80]	≥ 80	≥ 80	≥ 80
Clc1ccc(-c2nc(CN3CCC(c4ncccn4)CC3)n(-c3c(Cl)cc(Cl)cc3Cl)n2)cc1 [Example 1.77]	≥ 80	≥ 80	≥ 80
Cc1c(Cl)cccc1-n1nc(-c2ccc(Cl)cc2)nc1CN1CCC(c2ncccn2)CC1 [Example 1.84]	≥ 80	≥ 80	≥ 80
Fc1ccccc1-n1nc(-c2cccc(C(F)(F)F)c2)nc1CN1CCC(c2ncccn2)CC1 [Example 1.38]	≥ 80	≥ 80	≥ 80
Cc1ccnc(C2CCN(Cc3nc(-c4ccc(Cl)cc4)nn3-c3ccccc3F)CC2)n1 [Example 1.125]		≥ 80	≥ 80
Fc1cccc(F)c1-n1nc(-c2ccc(C(F)(F)F)cc2)nc1CN1CCC(c2ncccn2)CC1 [Example 1.21]	≥ 80	≥ 80	≥ 80
NC(=O)C1CCN(Cc2nc(-c3ccc(Cl)cc3)nn2-c2ccccc2F)CC1 [Example 1.47]		≥ 80	≥ 80
Fc1ccccc1-n1nc(-c2ccc(Cl)cc2)nc1CN1CCC2(CC1)CC(C(F)(F)F)=NO2 [Example 5.5]		≥ 80	≥ 80
CC1(C)CCN(Cc2nc(-c3ccc(Cl)cc3)nn2-c2ccccc2F)CC1 [Example 1.35]	≥ 80	≥ 80	≥ 80
Clc1ccc(-c2nc(CN3CCC(c4ncccn4)CC3)n(-c3ccc(Cl)cc3)n2)cc1 [Example 1.66]	≥ 80	≥ 80	≥ 80
Fc1ccccc1-n1nc(-c2ccc(C(F)(F)F)cc2)nc1CN1CCC(c2ncccn2)CC1 [Example 1.26]	≥ 80	≥ 80	≥ 80
